Measurements from patent US9163030B2 (priority 2012, dated 2015).
Where two headings read alike, the source gives them in different places.

Assays:
DOR [1] = details: brain tissue membranes, included for comparison; read-out: Ki ± SEM DOR; cited from earlier work
MOR [2] = details: brain tissue membranes, included for comparison; read-out: Ki ± SEM MOR; cited from earlier work
KOR [3] = details: brain tissue membranes, included for comparison; read-out: Ki ± SEM KOR; cited from earlier work
[4] = target: T1, CHO cells co-expressing MOR and DOR (dimer cells) (UniProt P32300+P35372); type: cell-based, human μ / mouse δ
T1 construct: cMyc (N); expressed in transfected cells; host or cells: CHO (cMyc-mδ-HμCHO cells)
T1 sequence (P35372 whole entry): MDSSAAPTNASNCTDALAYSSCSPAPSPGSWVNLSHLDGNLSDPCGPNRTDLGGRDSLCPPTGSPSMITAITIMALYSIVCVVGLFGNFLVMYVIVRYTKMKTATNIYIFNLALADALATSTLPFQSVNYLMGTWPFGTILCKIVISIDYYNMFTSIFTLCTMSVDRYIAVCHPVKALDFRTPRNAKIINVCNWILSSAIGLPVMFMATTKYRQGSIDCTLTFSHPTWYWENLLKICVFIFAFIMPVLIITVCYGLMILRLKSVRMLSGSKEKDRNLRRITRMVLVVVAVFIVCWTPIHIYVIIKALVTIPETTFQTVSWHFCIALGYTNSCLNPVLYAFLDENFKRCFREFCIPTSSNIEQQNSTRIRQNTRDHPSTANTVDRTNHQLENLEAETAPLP
T1 sequence (P32300 whole entry): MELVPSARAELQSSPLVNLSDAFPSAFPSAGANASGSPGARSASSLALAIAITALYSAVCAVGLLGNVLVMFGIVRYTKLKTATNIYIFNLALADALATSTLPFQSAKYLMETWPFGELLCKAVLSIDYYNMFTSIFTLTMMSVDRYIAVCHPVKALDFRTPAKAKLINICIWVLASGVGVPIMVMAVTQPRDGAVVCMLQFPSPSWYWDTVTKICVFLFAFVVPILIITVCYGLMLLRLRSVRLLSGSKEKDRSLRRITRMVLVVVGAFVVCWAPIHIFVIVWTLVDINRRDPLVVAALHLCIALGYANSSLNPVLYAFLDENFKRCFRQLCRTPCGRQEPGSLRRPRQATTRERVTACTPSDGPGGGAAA

KOR [5] = target: T2, KOR (Homo sapiens, UniProt P41145); assay: [35S]GTP-γ-S binding assay, hKOR-CHO cells; type: biochemical; details: for Emax: normalized to stimulation by standard agonist; for agonist activity KOR EC50: stimulation of [35S]GTP-γ-S binding, no stim = no stimulation
T2 construct: expressed in transfected cells; host or cells: CHO (hKOR-CHO)
T2 sequence (P41145 whole entry): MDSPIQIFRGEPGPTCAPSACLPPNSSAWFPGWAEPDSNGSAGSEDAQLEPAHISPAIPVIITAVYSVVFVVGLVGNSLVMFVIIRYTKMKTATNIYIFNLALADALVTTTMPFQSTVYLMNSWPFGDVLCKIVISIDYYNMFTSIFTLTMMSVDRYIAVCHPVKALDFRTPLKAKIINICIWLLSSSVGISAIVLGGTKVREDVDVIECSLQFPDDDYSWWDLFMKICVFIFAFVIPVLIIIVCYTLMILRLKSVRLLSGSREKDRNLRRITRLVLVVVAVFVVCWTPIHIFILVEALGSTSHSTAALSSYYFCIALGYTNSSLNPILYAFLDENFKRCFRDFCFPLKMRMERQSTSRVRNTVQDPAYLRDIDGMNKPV

DOR [6] = target: T3, DOR (Mus musculus, UniProt P32300); assay: [35S]GTP-γ-S binding assay, NG108-15 cells; type: biochemical; details: for functional activity profile at DOR: in words; for agonist activity DOR EC50: stimulation of [35S]GTP-γ-S binding, no stim = no stimulation; for Emax: read-out: agonist activity DOR Emax
T3 construct: endogenous in cells; host or cells: NG108-15 neuroblastoma x glioma cells
T3 sequence (P32300 whole entry): as the sequence (P32300 whole entry) above

MOR [7] = target: T4, MOR (Homo sapiens, UniProt P35372); assay: [35S]GTP-γ-S binding assay, hMOR-CHO cells; type: biochemical; details: for functional activity profile at MOR: in words; for Emax / agonist activity MOR Emax: normalized to stimulation by DAMGO; for Emax: read-out: agonist activity MOR Emax; for agonist activity MOR EC50: stimulation of [35S]GTP-γ-S binding, no stim = no stimulation
T4 construct: expressed in transfected cells; host or cells: CHO (hMOR-CHO)
T4 sequence (P35372 whole entry): as the sequence (P35372 whole entry) above

mice [8] = assay: 55° C. warm-water tail-withdrawal test; type: in vivo, mouse; details: for Antinociceptive A50 Values: calculated at time of peak effect; for antinociceptive effect: in words; for effect of naloxone pretreatment on antinociceptive effect: naloxone 10 mg/kg ip, -10 min, icv test compound
[9] = target: T1, CHO cells co-expressing MOR and DOR (dimer cells); assay: cell-based; type: cell-based, human μ / mouse δ; design: Emax: dose or concentration left out as unconfirmed; details: for Emax: CHO, read-out: decrease of the Emax value for DAMGO-mediated inhibition of forskolin-stimulated cAMP
KOR [10] = target: T2, KOR; assay: biochemical; type: binding
DOR [11] = target: T5, DOR (Homo sapiens, UniProt P41143); assay: Opioid binding assay, displacement of [3H]DADLE, hDOR-CHO cell membranes; details: for fold weaker in binding to DOR compared to 14-benzyloxy counterpart: 18a vs 17b, 18d vs 17f
T5 construct: expressed in transfected cells; host or cells: CHO (hDOR-CHO)
T5 sequence (P41143 whole entry): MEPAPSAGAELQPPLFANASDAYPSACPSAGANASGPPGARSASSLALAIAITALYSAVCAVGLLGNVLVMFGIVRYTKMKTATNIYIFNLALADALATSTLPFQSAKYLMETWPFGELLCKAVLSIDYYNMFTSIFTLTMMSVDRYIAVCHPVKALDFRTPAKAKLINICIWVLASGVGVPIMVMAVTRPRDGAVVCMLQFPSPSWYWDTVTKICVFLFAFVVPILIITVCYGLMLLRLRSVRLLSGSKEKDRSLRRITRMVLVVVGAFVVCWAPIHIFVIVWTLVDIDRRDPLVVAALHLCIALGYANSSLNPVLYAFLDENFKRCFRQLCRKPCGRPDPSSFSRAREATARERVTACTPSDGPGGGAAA

MOR [12] = target: T4, MOR; assay: Opioid binding assay, displacement of [3H]DAMGO, hMOR-CHO cell membranes; details: for selectivity ratio MOR/DOR: ratio of Ki values, CHO membranes
mice [13] = assay: Tolerance regimen, repeated icv injection, warm-water tail-withdrawal; details: repeated injection paradigm
[14] = ratio of Ki values, CHO membranes

SMILES | functional activity profile at DOR (DOR [6]) | agonist activity DOR EC50 (DOR [6]) | functional activity profile at MOR (MOR [7]) | Emax (MOR [7]) | Antinociceptive A50 Values (mice [8]; icv) | antinociceptive effect (mice [8]; icv) | effect of naloxone pretreatment on antinociceptive effect (mice [8]) | EC50 (KOR [5]) | Emax (KOR [5]) | EC50 (MOR [7]) | selectivity ratio KOR/DOR (KOR [10]; [14]) | Ki (KOR [10]; read-out: Ki ± SEM KOR) | Ki (DOR [11]) | Ki (MOR [12]) | selectivity ratio MOR/DOR (MOR [12]) | melting point | agonist activity KOR EC50 (KOR [5]) | Emax (DOR [6]) | selectivity ratio KOR/DOR (KOR [10]) | agonist activity MOR EC50 (MOR [7]) | also measured
CN1CCC23c4c5ccc(O)c4OC2c2ncc(-c4ccc(Cl)cc4)cc2CC3(O)C1C5 (stereo not drawn) [Compound 9] | – | – | – | – | – | – | – | – | – | – | – | – | – | – | – | – | – | – | – | – | Ki (DOR [1]): 3.9 ± 0.2 nM; Ki (MOR [2]): 230 ± 10 nM; Ki (KOR [3]): 468 ± 17 nM
Oc1ccc2c3c1OC1c4ncc(-c5ccc(Cl)cc5)cc4CC4(OCCCc5ccccc5)C(C2)N(CC2CC2)CCC314 (stereo not drawn) [Compound 17d, 5′-(4-Chlorophenyl)-17-(cyclopropylmethyl)-6,7-didehydro-4,5α-epoxy-3-hydroxy-14-(3-phenylpropoxy)pyrido[2′,3′:6,7]morphinan] | antagonists at DOR | no stim | agonist profile at MOR | 72% | 0.35 nmol | full antinociceptive effects | blocked by naloxone pretreatment | – | – | – | – | – | – | – | – | – | – | – | – | – | cAMP superactivation (forskolin-stimulated cAMP accumulation after chronic treatment) ([4]; 20 h treatment, washed, forskolin/IBMX 100 μM/500 μM): did not; naloxone-induced cAMP overshoot ([4]; 20 h treatment, washed, forskolin/IBMX plus 10 μM naloxone): did not; functional activity profile at KOR (KOR [5]; in words): devoid of agonist activity at KOR; antagonist activity DOR Ke (DOR [6]; shift in EC50 of standard agonist): 0.091 nM; increase in the EC50 value for DAMGO-mediated inhibition of forskolin-stimulated cAMP accumulation (tolerance) [9]: did not produce either tolerance; Emax [9]: 40%
COC12Cc3cc(-c4ccc(Cl)cc4)cnc3C3Oc4c(O)ccc5c4C31CCN(C)C2C5 (stereo not drawn) [Compound 17e, 5′-(4-Chlorophenyl)-6,7-didehydro-4,5α-epoxy-3-hydroxy-14-methoxy-17-methylpyrido[2′,3′:6,7]morphinan] | antagonist activity at DOR | no stim | – | 118 ± 4% | 1.44 nmol | full antinociceptive effects | blocked by naloxone pretreatment | 633 ± 108 nM | 36 ± 2% | 379 nM | 17 | 28 ± 1.59 nM | 1.63 ± 0.08 nM | 7.89 ± 0.33 nM | 4.8 | 296 to 299 °C (dec.) | – | – | – | – | analgesic potency, fold weaker than other tested ligands (mice [8]; icv): 6 fold
CN1CCC23c4c5ccc(O)c4OC2c2ncc(-c4ccc(Cl)cc4)cc2CC3(OCCCc2ccccc2)C1C5 (stereo not drawn) [Compound 17h, 5′-(4-Chlorophenyl)-6,7-didehydro-4,5α-epoxy-3-hydroxy-17-methyl-14-(3-phenylpropoxy)pyrido[2′,3′:6,7]morphinan] | weak to potent partial agonist activity at DOR | – | – | 125 ± 2% | 0.23 nmol | full antinociceptive effects | blocked by naloxone pretreatment | – | – | 2.15 nM | – | 1.53 ± 0.1 nM | 1.04 ± 0.08 nM | 0.54 ± 0.04 nM | 0.52 | – | no stim | 85% | 1.5 | – | cAMP superactivation (forskolin-stimulated cAMP accumulation after chronic treatment) [4]: effects similar to that of morphine; naloxone-induced cAMP overshoot [4]: effects similar to that of morphine; toxicity on repeated administration (mice [13]): undue toxicity; increase in the EC50 value for DAMGO-mediated inhibition of forskolin-stimulated cAMP accumulation (tolerance) [9]: ~7 fold; Emax [9]: 20%
O=C(OC12Cc3cc(-c4ccc(Cl)cc4)cnc3C3Oc4c(O)ccc5c4C31CCN(CC1CC1)C2C5)c1ccccc1 (stereo not drawn) [Compound 18a, 14-Benzoyloxy-5′-(4-chlorophenyl)-17-(cyclopropylmethyl)-6,7-didehydro-4,5α-epoxy-3-hydroxypyrido[2′,3′: 6,7]morphinan] | – | no stim | – | – | – | – | – | – | – | – | – | – | 87 ± 8 nM | 192 ± 21 nM | 2.2 | 158 to 162 °C | no stim | – | 1.3 | no stim | Ki (KOR [10]): 117 ± 6 nM; fold weaker in binding to DOR compared to 14-benzyloxy counterpart (DOR [11]): 45 fold
O=C(Cc1ccccc1)OC12Cc3cc(-c4ccc(Cl)cc4)cnc3C3Oc4c(O)ccc5c4C31CCN(CC1CC1)C2C5 (stereo not drawn) [Compound 18b, 5′-(4-Chlorophenyl)-17-(cyclopropylmethyl)-6,7-didehydro-4,5α-epoxy-3-hydroxy-14-(phenylacetoxy)pyrido[2′,3′:6,7]morphinan] | – | no stim | – | – | – | – | – | 26 ± 9 nM | 34 ± 2% | – | 2.3 | 3.1 ± 0.19 nM | 1.33 ± 0.1 nM | 1.04 ± 0.25 nM | 0.78 | 118 to 120 °C | – | – | – | no stim | –
CN1CCC23c4c5ccc(O)c4OC2c2ncc(-c4ccc(Cl)cc4)cc2CC3(OC(=O)c2ccccc2)C1C5 (stereo not drawn) [Compound 18d, 14-Benzoyloxy-5′-(4-chlorophenyl)-6,7-didehydro-4,5α-epoxy-3-hydroxy-17-methylpyrido[2′,3′:6,7]morphinan] | – | no stim | weak MOR agonist potency and partial efficacy | 55 ± 8% | – | – | – | – | – | 4620 ± 1440 nM | 6.6 | 112 ± 4 nM | 17 ± 1 nM | 84 ± 7 nM | 4.9 | 280 to 284 °C | no stim | – | – | – | fold weaker in binding to DOR compared to 14-benzyloxy counterpart (DOR [11]): 10 fold
CN1CCC23c4c5ccc(O)c4OC2c2ncc(-c4ccc(Cl)cc4)cc2CC3(OC(=O)Cc2ccccc2)C1C5 (stereo not drawn) [Compound 18e, 5′-(4-Chlorophenyl)-6,7-didehydro-4,5α-epoxy-3-hydroxy-17-methyl-14-(phenylacetoxy)pyrido[2′,3′:6,7]morphinan] | weak to potent partial agonist activity at DOR | – | – | – | – | – | – | 109 ± 24 nM | 36 ± 2% | 87 nM | 18 | 17 ± 1 nM | 0.97 ± 0.04 nM | 1.43 ± 0.08 nM | 1.5 | 194 to 196 °C | – | 27 ± 3% | – | – | agonist activity MOR Emax (MOR [7]): 122 ± 3%
CN1CCC23c4c5ccc(O)c4OC2c2ncc(-c4ccc(Cl)cc4)cc2CC3(OC(=O)CCc2ccccc2)C1C5 (stereo not drawn) [Compound 18f, 5′-(4-Chlorophenyl)-6,7-didehydro-4,5α-epoxy-3-hydroxy-17-methyl-14-(3-phenylpropionyloxy)pyrido[2′,3′:6,7]morphinan] | weak to potent partial agonist activity at DOR | – | – | > 100% | – | – | – | 136 ± 60 nM | 16 ± 2% | 48 nM | – | – | 0.96 ± 0.05 nM | 0.94 ± 0.05 nM | 0.98 | 242 to 244 °C | – | 59 ± 2% | 4.6 | – | agonist activity MOR Emax (MOR [7]): 105 ± 2%; Ki (KOR [10]): 4.41 ± 0.23 nM
Oc1ccc2c3c1OC1c4ncc(-c5ccc(Cl)cc5)cc4C=C4C(C2)N(CC2CC2)CCC431 (stereo not drawn) [Compound 23, 5′-(4-Chlorophenyl)-17-(cyclopropylmethyl)-3-hydroxy-6,7,8,14-tetradehydro-4,5α-epoxypyrido[2′,3′:6,7]morphinan] | – | no stim | antagonists at MOR | – | – | – | – | – | – | – | – | – | 2.71 ± 0.11 nM | 13 ± 0.4 nM | 4.8 | 164 to 166 °C | no stim | – | 2.2 | no stim | Ki (KOR [10]): 5.97 ± 0.19 nM
